Measurements as given in patent publication US4340609A, “Amidinourea derivative veterinary compositions for suppression of parasitemia” (William H. Rorer, Inc., priority 1980, dated 1982).
Where a name gives a salt, the structure may show the parent alone. Read-outs that look alike come from different tables or passages of the source.

How the values were obtained:
plasmodium berghei = test: suppression of parasitemia in mice infected with plasmodium berghei; type: in vivo; conditions: for ED50: Plasmodium berghei, sc; for ED50 / Mean % Parasitemia / Mean % Suppression / % died: mice; for FACTOR (HIGHEST SED50 ÷ LOWEST SED50): factor of change, duration of action
Procedure, shortened: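 Mice, 10 per dose group, infected intraperitoneally with 5,000,000 P. berghei-parasitized blood cells. Seven doses from 0.15 to 10 mg/kg (as base) in 0.5% methocel were given subcutaneously on days 1, 2 and 3. Parasitemia was followed by blood smears on days 4, 5, 6 and 10.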

LD50 in mice = conditions: mouse, in vivo
[1] = 96 h, s.c., levels of parasitemia, 4th day, read-out: SED50 (Suppressant Effective Dose50)
[2] = 120 h, s.c., levels of parasitemia, 5th day, read-out: SED50 (Suppressant Effective Dose50)
[3] = 144 h, s.c., levels of parasitemia, 6th day, read-out: SED50 (Suppressant Effective Dose50)
[4] = 240 h, s.c., levels of parasitemia, 10th day, read-out: SED50 (Suppressant Effective Dose50)
[5] = day 4 to day 10, read-out: HIGHEST SED50
[6] = day 4 to day 10, read-out: LOWEST SED50
[7] = s.c., 1.0 mg/kg on days 1-3, 4th day
[8] = s.c., 1.0 mg/kg on days 1-3, 5th day
[9] = s.c., 1.0 mg/kg on days 1-3, 6th day
[10] = s.c., 1.0 mg/kg on days 1-3, 10th day
[11] = s.c., 2.0 mg/kg on days 1-3, 4th day
[12] = s.c., 2.0 mg/kg on days 1-3, 5th day
[13] = s.c., 2.0 mg/kg on days 1-3, 6th day
[14] = s.c., 2.0 mg/kg on days 1-3, 10th day
[15] = s.c., 2.0 mg/kg on days 1-3, 12th day
[16] = s.c., 2.0 mg/kg on days 1-3, 13th day
[17] = s.c., 2.0 mg/kg on days 1-3, 14th day
[18] = s.c., 10.0 mg/kg on days 1-3, 4th day
[19] = s.c., 10.0 mg/kg on days 1-3, 5th day
[20] = s.c., 10.0 mg/kg on days 1-3, 6th day
[21] = s.c., 10.0 mg/kg on days 1-3, 10th day
[22] = s.c., 10.0 mg/kg on days 1-3, 13th day
[23] = s.c., 10.0 mg/kg on days 1-3, 14th day
[24] = s.c., .15 mg/kg on days 1-3, 4th day
[25] = s.c., .15 mg/kg on days 1-3, 5th day
[26] = s.c., .15 mg/kg on days 1-3, 6th day
[27] = s.c., .15 mg/kg on days 1-3, 10th day
[28] = s.c., .20 mg/kg on days 1-3, 4th day
[29] = s.c., .20 mg/kg on days 1-3, 5th day
[30] = s.c., .20 mg/kg on days 1-3, 6th day
[31] = s.c., .20 mg/kg on days 1-3, 10th day
[32] = s.c., .20 mg/kg on days 1-3, 12th day
[33] = s.c., .20 mg/kg on days 1-3, 13th day
[34] = s.c., .20 mg/kg on days 1-3, 14th day
[35] = s.c., .30 mg/kg on days 1-3, 4th day
[36] = s.c., .30 mg/kg on days 1-3, 5th day
[37] = s.c., .30 mg/kg on days 1-3, 6th day
[38] = s.c., .30 mg/kg on days 1-3, 10th day
[39] = s.c., .50 mg/kg on days 1-3, 4th day
[40] = s.c., .50 mg/kg on days 1-3, 5th day
[41] = s.c., .50 mg/kg on days 1-3, 6th day
[42] = s.c., .50 mg/kg on days 1-3, 10th day
[43] = s.c., .50 mg/kg on days 1-3, 12th day
[44] = s.c., .50 mg/kg on days 1-3, 13th day
[45] = s.c., .50 mg/kg on days 1-3, 14th day

Structure (SMILES): CCCN=C(NC)NC(=O)Nc1c(C)cccc1C [Compound D, 1-(2,6-dimethylphenyl)-3-N-methyl-N'-propylamidino)urea hydrochloride]
- ED50 (plasmodium berghei; [1]): 0.9 mg/kg
- ED50 (plasmodium berghei; [2]): 1.91 mg/kg
- ED50 (plasmodium berghei; [3]): 2.09 mg/kg
- ED50 (plasmodium berghei; [4]): 4.47 mg/kg
- ED50 (plasmodium berghei; [5]): 4.47 mg/kg
- ED50 (plasmodium berghei; [6]): 0.9 mg/kg
- FACTOR (HIGHEST SED50 ÷ LOWEST SED50) (plasmodium berghei; day 4 to day 10): 4.97
- Mean % Parasitemia (plasmodium berghei; [7]): 2.25%
- Mean % Suppression (plasmodium berghei; [7]): 57.1%
- Mean % Parasitemia (plasmodium berghei; [8]): 6.50%
- Mean % Suppression (plasmodium berghei; [8]): 11.0%
- Mean % Parasitemia (plasmodium berghei; [9]): 6.70%
- Mean % Suppression (plasmodium berghei; [9]): 28.0%
- Mean % Parasitemia (plasmodium berghei; [10]): 22.4%
- Mean % Suppression (plasmodium berghei; [10]): 36.9%
- % died (plasmodium berghei; s.c., 1.0 mg/kg on days 1-3, 12th day): 20%
- % died (plasmodium berghei; s.c., 1.0 mg/kg on days 1-3, 13th day): 20%
- % died (plasmodium berghei; s.c., 1.0 mg/kg on days 1-3, 14th day): 40%
- Mean % Parasitemia (plasmodium berghei; [11]): 1.75%
- Mean % Suppression (plasmodium berghei; [11]): 66.6%
- Mean % Parasitemia (plasmodium berghei; [12]): 3.30%
- Mean % Suppression (plasmodium berghei; [12]): 54.8%
- Mean % Parasitemia (plasmodium berghei; [13]): 4.80%
- Mean % Suppression (plasmodium berghei; [13]): 48.4%
- Mean % Parasitemia (plasmodium berghei; [14]): 20.5%
- Mean % Suppression (plasmodium berghei; [14]): 42.3%
- % died (plasmodium berghei; [15]): 20%
- % died (plasmodium berghei; [16]): 20%
- % died (plasmodium berghei; [17]): 20%
- Mean % Parasitemia (plasmodium berghei; [18]): 0.25%
- Mean % Suppression (plasmodium berghei; [18]): 96.2%
- Mean % Parasitemia (plasmodium berghei; [19]): 0%
- Mean % Suppression (plasmodium berghei; [19]): 100.0%
- Mean % Parasitemia (plasmodium berghei; [20]): 0%
- Mean % Suppression (plasmodium berghei; [20]): 100.0%
- Mean % Parasitemia (plasmodium berghei; [21]): 0%
- Mean % Suppression (plasmodium berghei; [21]): 100.0%
- % died (plasmodium berghei; [22]): 0%
- % died (plasmodium berghei; [23]): 0%
- Mean % Parasitemia (plasmodium berghei; [24]): 5.00%
- Mean % Suppression (plasmodium berghei; [24]): 4.8%
- Mean % Parasitemia (plasmodium berghei; [25]): 7.40%
- Mean % Suppression (plasmodium berghei; [25]): 0%
- Mean % Parasitemia (plasmodium berghei; [26]): 9.20%
- Mean % Suppression (plasmodium berghei; [26]): 1.1%
- Mean % Parasitemia (plasmodium berghei; [27]): 34.0%
- Mean % Suppression (plasmodium berghei; [27]): 4.2%
- % died (plasmodium berghei; s.c., .15 mg/kg on days 1-3, 12th day): 0%
- % died (plasmodium berghei; s.c., .15 mg/kg on days 1-3, 13th day): 20%
- % died (plasmodium berghei; s.c., .15 mg/kg on days 1-3, 14th day): 80%
- Mean % Parasitemia (plasmodium berghei; [28]): 4.50%
- Mean % Suppression (plasmodium berghei; [28]): 14.3%
- Mean % Parasitemia (plasmodium berghei; [29]): 7.30%
- Mean % Suppression (plasmodium berghei; [29]): 0%
- Mean % Parasitemia (plasmodium berghei; [30]): 9.10%
- Mean % Suppression (plasmodium berghei; [30]): 2.2%
- Mean % Parasitemia (plasmodium berghei; [31]): 30.8%
- Mean % Suppression (plasmodium berghei; [31]): 13.2%
- % died (plasmodium berghei; [32]): 40%
- % died (plasmodium berghei; [33]): 60%
- % died (plasmodium berghei; [34]): 100%
- Mean % Parasitemia (plasmodium berghei; [35]): 4.50%
- Mean % Suppression (plasmodium berghei; [35]): 14.3%
- Mean % Parasitemia (plasmodium berghei; [36]): 7.20%
- Mean % Suppression (plasmodium berghei; [36]): 1.4%
- Mean % Parasitemia (plasmodium berghei; [37]): 8.20%
- Mean % Suppression (plasmodium berghei; [37]): 11.8%
- Mean % Parasitemia (plasmodium berghei; [38]): 26.5%
- Mean % Suppression (plasmodium berghei; [38]): 25.4%
- % died (plasmodium berghei; s.c., .30 mg/kg on days 1-3, 12th day): 0%
- % died (plasmodium berghei; s.c., .30 mg/kg on days 1-3, 13th day): 0%
- % died (plasmodium berghei; s.c., .30 mg/kg on days 1-3, 14th day): 60%
- Mean % Parasitemia (plasmodium berghei; [39]): 3.50%
- Mean % Suppression (plasmodium berghei; [39]): 33.3%
- Mean % Parasitemia (plasmodium berghei; [40]): 7.10%
- Mean % Suppression (plasmodium berghei; [40]): 2.7%
- Mean % Parasitemia (plasmodium berghei; [41]): 7.30%
- Mean % Suppression (plasmodium berghei; [41]): 21.5%
- Mean % Parasitemia (plasmodium berghei; [42]): 24.3%
- Mean % Suppression (plasmodium berghei; [42]): 31.5%
- % died (plasmodium berghei; [43]): 20%
- % died (plasmodium berghei; [44]): 40%
- % died (plasmodium berghei; [45]): 80%
- LD50 (LD50 in mice): 222 to 366 mg/kg

Structure (SMILES): Cc1cccc(C)c1NC(=O)NC(=N)NC(C)C.Cl [Compound E, 1-(2,6-dimethylphenyl)-3-(isopropylamidino)urea hydrochloride]
- ED50 (plasmodium berghei; [1]): 0.9 mg/kg
- ED50 (plasmodium berghei; [2]): 1.52 mg/kg
- ED50 (plasmodium berghei; [3]): 1.52 mg/kg
- ED50 (plasmodium berghei; [4]): 5.63 mg/kg
- ED50 (plasmodium berghei; [5]): 5.63 mg/kg
- ED50 (plasmodium berghei; [6]): 0.9 mg/kg
- FACTOR (HIGHEST SED50 ÷ LOWEST SED50) (plasmodium berghei; day 4 to day 10): 6.26
- Mean % Parasitemia (plasmodium berghei; [11]): 1.75%
- Mean % Suppression (plasmodium berghei; [11]): 66.7%
- Mean % Parasitemia (plasmodium berghei; [12]): 3.50%
- Mean % Suppression (plasmodium berghei; [12]): 52.1%
- Mean % Parasitemia (plasmodium berghei; [13]): 4.10%
- Mean % Suppression (plasmodium berghei; [13]): 55.9%
- Mean % Parasitemia (plasmodium berghei; [14]): 27.7%
- Mean % Suppression (plasmodium berghei; [14]): 22.0%
- % died (plasmodium berghei; [15]): 0%
- % died (plasmodium berghei; [16]): 20%
- % died (plasmodium berghei; [17]): 40%
- Mean % Parasitemia (plasmodium berghei; [18]): 0%
- Mean % Suppression (plasmodium berghei; [18]): 100.0%
- Mean % Parasitemia (plasmodium berghei; [19]): 0%
- Mean % Suppression (plasmodium berghei; [19]): 100.0%
- Mean % Parasitemia (plasmodium berghei; [20]): 0%
- Mean % Suppression (plasmodium berghei; [20]): 100.0%
- Mean % Parasitemia (plasmodium berghei; [21]): 0%
- Mean % Suppression (plasmodium berghei; [21]): 100.0%
- % died (plasmodium berghei; s.c., 10.0 mg/kg on days 1-3, 12th day): 0%
- % died (plasmodium berghei; [22]): 0%
- % died (plasmodium berghei; [23]): 0%
- Mean % Parasitemia (plasmodium berghei; [28]): 5.25%
- Mean % Suppression (plasmodium berghei; [28]): 0%
- Mean % Parasitemia (plasmodium berghei; [29]): 7.00%
- Mean % Suppression (plasmodium berghei; [29]): 4.1%
- Mean % Parasitemia (plasmodium berghei; [30]): 8.70%
- Mean % Suppression (plasmodium berghei; [30]): 6.5%
- Mean % Parasitemia (plasmodium berghei; [31]): 33.9%
- Mean % Suppression (plasmodium berghei; [31]): 4.5%
- % died (plasmodium berghei; [32]): 0%
- % died (plasmodium berghei; [33]): 60%
- % died (plasmodium berghei; [34]): 60%
- Mean % Parasitemia (plasmodium berghei; [39]): 2.50%
- Mean % Suppression (plasmodium berghei; [39]): 52.3%
- Mean % Parasitemia (plasmodium berghei; [40]): 6.90%
- Mean % Suppression (plasmodium berghei; [40]): 5.5%
- Mean % Parasitemia (plasmodium berghei; [41]): 7.40%
- Mean % Suppression (plasmodium berghei; [41]): 20.4%
- Mean % Parasitemia (plasmodium berghei; [42]): 31.3%
- Mean % Suppression (plasmodium berghei; [42]): 11.8%
- % died (plasmodium berghei; [43]): 0%
- % died (plasmodium berghei; [44]): 20%
- % died (plasmodium berghei; [45]): 60%
- LD50 (LD50 in mice): 82 to 135 mg/kg
